# In EP0412877A1, “Oral galenic form to improve bioavailability” (priority 1989, dated 1991):
# Where two headings read alike, the source gives them in different places.
# Tests used:
# [1] = In vitro dissolution kinetics in distilled water and intestinal juice; type: physicochemical; conditions: eau distillée and suc intestinal
# [2] = Dissolution kinetics of dihydropyridines (figure 7); type: physicochemical; conditions: Nifédipine à l'état brut, oxodipine à l'état de coprécipité, without PROSOBEL
# From the text: On peut en conclure que le PROSOBEL, de façon très inattendue pour l'homme de métier, ralentit la dissolution en milieu aqueux, et permet l'obtention de formes pharmaceutiques originales et nouvelles, de dihydropyridines à biodisponibilité contrôlée.
# [3] = human, in vivo, 0 min
# Description: (§1) Des comprimés selon l'exemple 3, dosés à 15, 20 et 25mg d'oxodipine, ont été administrés à 6 volontaires sains.
# [4] = human, in vivo
# [5] = Solubility in water (stated in words); conditions: result in words
# [6] = Plasma concentrations after single oral administration of oxodipine forms to 6 healthy subjects; conditions: human, 20 mg
# Description: as §1
smiles,measurement,setting,value
"CCOC(=O)C1=C(C)NC(C)=C(C(=O)OC)C1c1cccc2c1OCO2 (centres unmarked) [Poudre 20mg, 1,4-dihydro 4-(2′,3′-méthylènedioxyphényl) 3,5-pyridine dicarboxylatede méthyle et d'éthyle]",cinétique de dissolution in vitro,[1],lente et limitée
same,cinétiques de dissolution,[2],très rapides
same,Concentration,[3],"0,0 ng/ml"
same,% DE DOSE ENTRES DANS L'ORGANISME APRES ABSORPTION ET PASSAGE HEPATIQUE,[4]; 10.2 min,"2,5%"
same,% DE DOSE ENTRES DANS L'ORGANISME APRES ABSORPTION ET PASSAGE HEPATIQUE,[4]; 19.8 min,"1,6%"
same,% DE DOSE ENTRES DANS L'ORGANISME APRES ABSORPTION ET PASSAGE HEPATIQUE,[4]; 30 min,"4,5%"
same,% DE DOSE ENTRES DANS L'ORGANISME APRES ABSORPTION ET PASSAGE HEPATIQUE,[4]; 39.6 min,"6,6%"
same,% DE DOSE ENTRES DANS L'ORGANISME APRES ABSORPTION ET PASSAGE HEPATIQUE,[4]; 49.8 min,"7,0%"
same,% DE DOSE ENTRES DANS L'ORGANISME APRES ABSORPTION ET PASSAGE HEPATIQUE,[4]; 60 min,"9,3%"
same,% DE DOSE ENTRES DANS L'ORGANISME APRES ABSORPTION ET PASSAGE HEPATIQUE,[4]; 75 min,11%
same,% DE DOSE ENTRES DANS L'ORGANISME APRES ABSORPTION ET PASSAGE HEPATIQUE,[4]; 90 min,"11,4%"
same,% DE DOSE ENTRES DANS L'ORGANISME APRES ABSORPTION ET PASSAGE HEPATIQUE,[4]; 120 min,"14,0%"
same,% DE DOSE ENTRES DANS L'ORGANISME APRES ABSORPTION ET PASSAGE HEPATIQUE,[4]; 180 min,"16,6%"
same,% DE DOSE ENTRES DANS L'ORGANISME APRES ABSORPTION ET PASSAGE HEPATIQUE,[4]; 240 min,18%
same,% DE DOSE ENTRES DANS L'ORGANISME APRES ABSORPTION ET PASSAGE HEPATIQUE,[4]; 360 min,"19,8%"
same,% DE DOSE ENTRES DANS L'ORGANISME APRES ABSORPTION ET PASSAGE HEPATIQUE,[4]; 480 min,"21,2%"
same,% DE DOSE ENTRES DANS L'ORGANISME APRES ABSORPTION ET PASSAGE HEPATIQUE,[4]; 600 min,"22,6%"
same,% DE DOSE ENTRES DANS L'ORGANISME APRES ABSORPTION ET PASSAGE HEPATIQUE,[4]; 720 min,"23,8%"
same,biodisponibilité,[4]; 720 min,31%
same,BIODIOPONIBILITE RELATIVE PAR RAPPORT A LA SOLUTION,[4]; po,31%
same,solubilité dans l'eau,[5],faible
same,concentration at 0.17 h,[6],1.2 ng/mL
same,concentration at 0.33 h,[6],1.4 ng/mL
same,concentration at 0.5 h,[6],2.7 ng/mL
same,concentration at 0.66 h,[6],4.2 ng/mL
same,concentration at 0.83 h,[6],5 ng/mL
same,concentration at 1 h,[6],6 ng/mL
same,concentration at 1.25 h,[6],6.8 ng/mL
same,concentration at 1.5 h,[6],6.5 ng/mL
same,concentration at 2 h,[6],6.2 ng/mL
same,concentration at 3 h,[6],5.1 ng/mL
same,concentration at 4 h,[6],4 ng/mL
same,concentration at 6 h,[6],2.4 ng/mL
same,concentration at 8 h,[6],1.6 ng/mL
same,concentration at 10 h,[6],1.4 ng/mL
same,concentration at 12 h,[6],1.2 ng/mL
same,concentration at 14 h,[6],1 ng/mL
same,concentration at 24 h,[6],1.2 ng/mL
